Values of other authors in publication PMC10486429, “Investigations Using Albumin Binders to Modify the Tissue Distribution Profile of Radiopharmaceuticals Exemplified with Folate Radioconjugates” (Cancers, 2023).
pKd: −log10 of the molar value. Like-named read-outs stand apart in the source and are kept apart here.

How the values were obtained:
folate receptor (FR) = target: T1, folate receptor (FR) (Homo sapiens, UniProt P15328); set-up: method as in PMID 34251183; details: IGROV-1 cells; read-out: KD Value (95% CI); cited from earlier work
T1 construct: endogenous in cells; host or cells: IGROV-1 (human ovarian carcinoma cell line), intact cells on ice

[1] = system: KB tumor-bearing athymic nude mice; set-up: method as in earlier work; details: cited from earlier work
[2] = set-up: method as in PMID 33063250; details: n-octanol/PBS pH 7.4; cited from earlier work
[3] = n-octanol/PBS pH 7.4; cited from earlier work

T1 sequence (P15328 25-257): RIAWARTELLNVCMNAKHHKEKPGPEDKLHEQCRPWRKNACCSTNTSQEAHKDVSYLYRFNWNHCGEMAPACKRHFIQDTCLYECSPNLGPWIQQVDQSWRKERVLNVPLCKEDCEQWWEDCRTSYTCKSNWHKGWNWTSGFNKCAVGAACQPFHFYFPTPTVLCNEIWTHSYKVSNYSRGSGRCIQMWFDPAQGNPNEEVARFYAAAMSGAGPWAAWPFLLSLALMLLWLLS

SMILES: CN1c2c(nc(N)[nH]c2=O)NC[C@H]1CNc1ccc(C(=O)N[C@@H](CCC(=O)N[C@@H](CCCCNC(=O)CN2CCN(CC(=O)O)CCN(CC(=O)O)CCN(CC(=O)O)CC2)C(=O)N[C@@H](CCCCNC(=O)CCCc2ccc(I)cc2)C(=O)O)C(=O)O)cc1 [[^177Lu]Lu-6R-RedFol-1, metal not drawn]
- pKd (folate receptor (FR)): 8.59
- Blood, accumulated activity ([1]; 1 h p.i.): 23 ± 3 % IA/g
- Bone, accumulated activity ([1]; 1 h p.i.): 2.1 ± 0.3 % IA/g
- Intestines, accumulated activity ([1]; 1 h p.i.): 2.9 ± 0.3 % IA/g
- Kidneys, accumulated activity ([1]; 1 h p.i.): 8.4 ± 0.8 % IA/g
- Liver, accumulated activity ([1]; 1 h p.i.): 3.3 ± 0.3 % IA/g
- Lung, accumulated activity ([1]; 1 h p.i.): 10 ± 1 % IA/g
- Muscle, accumulated activity ([1]; 1 h p.i.): 1.6 ± 0.2 % IA/g
- Salivary glands, accumulated activity ([1]; 1 h p.i.): 5.0 ± 0.3 % IA/g
- Spleen, accumulated activity ([1]; 1 h p.i.): 2.6 ± 0.2 % IA/g
- Stomach, accumulated activity ([1]; 1 h p.i.): 1.9 ± 0.4 % IA/g
- Tumor-to-blood ratio ([1]; 1 h p.i.): 0.46 ± 0.01
- Tumor-to-kidney ratio ([1]; 1 h p.i.): 1.3 ± 0.1
- Tumor-to-liver ratio ([1]; 1 h p.i.): 3.3 ± 0.2
- Blood, accumulated activity ([1]; 4 h p.i.): 17 ± 1 % IA/g
- Bone, accumulated activity ([1]; 4 h p.i.): 1.9 ± 0.2 % IA/g
- Intestines, accumulated activity ([1]; 4 h p.i.): 2.6 ± 0.7 % IA/g
- KB tumor, accumulated activity ([1]; 4 h p.i.): 20 ± 2 % IA/g
- Kidneys, accumulated activity ([1]; 4 h p.i.): 12 ± 1 % IA/g
- Liver, accumulated activity ([1]; 4 h p.i.): 3.0 ± 0.2 % IA/g
- Lung, accumulated activity ([1]; 4 h p.i.): 7.9 ± 1.4 % IA/g
- Muscle, accumulated activity ([1]; 4 h p.i.): 1.4 ± 0.1 % IA/g
- Salivary glands, accumulated activity ([1]; 4 h p.i.): 5.7 ± 0.5 % IA/g
- Spleen, accumulated activity ([1]; 4 h p.i.): 2.2 ± 0.2 % IA/g
- Stomach, accumulated activity ([1]; 4 h p.i.): 1.9 ± 0.3 % IA/g
- Tumor-to-blood ratio ([1]; 4 h p.i.): 1.2 ± 0.1
- Tumor-to-kidney ratio ([1]; 4 h p.i.): 1.7 ± 0.1
- Tumor-to-liver ratio ([1]; 4 h p.i.): 6.9 ± 0.7
- Blood, accumulated activity ([1]; 24 h p.i.): 5.4 ± 0.9 % IA/g
- Bone, accumulated activity ([1]; 24 h p.i.): 0.91 ± 0.22 % IA/g
- Intestines, accumulated activity ([1]; 24 h p.i.): 0.80 ± 0.09 % IA/g
- KB tumor, accumulated activity ([1]; 24 h p.i.): 47 ± 4 % IA/g
- Kidneys, accumulated activity ([1]; 24 h p.i.): 24 ± 4 % IA/g
- Liver, accumulated activity ([1]; 24 h p.i.): 1.3 ± 0.2 % IA/g
- Lung, accumulated activity ([1]; 24 h p.i.): 3.2 ± 0.6 % IA/g
- Muscle, accumulated activity ([1]; 24 h p.i.): 0.82 ± 0.22 % IA/g
- Salivary glands, accumulated activity ([1]; 24 h p.i.): 5.2 ± 1.0 % IA/g
- Spleen, accumulated activity ([1]; 24 h p.i.): 1.7 ± 0.1 % IA/g
- Stomach, accumulated activity ([1]; 24 h p.i.): 0.80 ± 0.11 % IA/g
- Tumor-to-blood ratio ([1]; 24 h p.i.): 8.8 ± 0.8
- Tumor-to-kidney ratio ([1]; 24 h p.i.): 2.0 ± 0.4
- Tumor-to-liver ratio ([1]; 24 h p.i.): 35 ± 4
- logD Values [2]: −3.9 ± 0.2 ^4

SMILES: CN1c2c(nc(N)[nH]c2=O)NCC1CNc1ccc(C(=O)NC(CCC(=O)NC(CCCCNC(=O)CN2CCN(CC(=O)[O-])CCN(CC(=O)[O-])CCN(CC(=O)[O-])CC2)C(=O)NC(CCCCNC(=O)CCCc2ccc(I)cc2)C(=O)O)C(=O)O)cc1.[177Lu+3] (stereo not drawn) [[^177Lu]Lu-6S-RedFol-1]
- pKd (folate receptor (FR)): 8.77
- Blood, accumulated activity ([1]; 1 h p.i.): 19 ± 2 % IA/g
- Bone, accumulated activity ([1]; 1 h p.i.): 2.0 ± 0.2 % IA/g
- Intestines, accumulated activity ([1]; 1 h p.i.): 1.8 ± 0.4 % IA/g
- KB tumor, accumulated activity ([1]; 1 h p.i.): 14 ± 3 % IA/g
- Kidneys, accumulated activity ([1]; 1 h p.i.): 18 ± 2 % IA/g
- Liver, accumulated activity ([1]; 1 h p.i.): 2.6 ± 0.1 % IA/g
- Lung, accumulated activity ([1]; 1 h p.i.): 8.5 ± 0.6 % IA/g
- Muscle, accumulated activity ([1]; 1 h p.i.): 1.6 ± 0.2 % IA/g
- Salivary glands, accumulated activity ([1]; 1 h p.i.): 4.0 ± 0.2 % IA/g
- Spleen, accumulated activity ([1]; 1 h p.i.): 2.0 ± 0.2 % IA/g
- Stomach, accumulated activity ([1]; 1 h p.i.): 1.5 ± 0.3 % IA/g
- Tumor-to-blood ratio ([1]; 1 h p.i.): 0.73 ± 0.12
- Tumor-to-kidney ratio ([1]; 1 h p.i.): 0.75 ± 0.09
- Tumor-to-liver ratio ([1]; 1 h p.i.): 5.3 ± 1.0
- Blood, accumulated activity ([1]; 4 h p.i.): 15 ± 2 % IA/g
- Bone, accumulated activity ([1]; 4 h p.i.): 1.7 ± 0.2 % IA/g
- Intestines, accumulated activity ([1]; 4 h p.i.): 1.9 ± 0.1 % IA/g
- KB tumor, accumulated activity ([1]; 4 h p.i.): 26 ± 1 % IA/g
- Kidneys, accumulated activity ([1]; 4 h p.i.): 33 ± 2 % IA/g
- Liver, accumulated activity ([1]; 4 h p.i.): 2.3 ± 0.2 % IA/g
- Lung, accumulated activity ([1]; 4 h p.i.): 6.7 ± 0.6 % IA/g
- Muscle, accumulated activity ([1]; 4 h p.i.): 1.3 ± 0.1 % IA/g
- Salivary glands, accumulated activity ([1]; 4 h p.i.): 3.5 ± 0.4 % IA/g
- Spleen, accumulated activity ([1]; 4 h p.i.): 1.9 ± 0.3 % IA/g
- Stomach, accumulated activity ([1]; 4 h p.i.): 1.2 ± 0.2 % IA/g
- Tumor-to-blood ratio ([1]; 4 h p.i.): 1.7 ± 0.2
- Tumor-to-kidney ratio ([1]; 4 h p.i.): 0.79 ± 0.07
- Blood, accumulated activity ([1]; 24 h p.i.): 3.8 ± 0.9 % IA/g
- Bone, accumulated activity ([1]; 24 h p.i.): 0.53 ± 0.08 % IA/g
- Intestines, accumulated activity ([1]; 24 h p.i.): 0.49 ± 0.04 % IA/g
- KB tumor, accumulated activity ([1]; 24 h p.i.): 46 ± 3 % IA/g
- Kidneys, accumulated activity ([1]; 24 h p.i.): 69 ± 7 % IA/g
- Liver, accumulated activity ([1]; 24 h p.i.): 0.81 ± 0.22 % IA/g
- Lung, accumulated activity ([1]; 24 h p.i.): 2.2 ± 0.4 % IA/g
- Muscle, accumulated activity ([1]; 24 h p.i.): 0.47 ± 0.15 % IA/g
- Salivary glands, accumulated activity ([1]; 24 h p.i.): 1.4 ± 0.2 % IA/g
- Spleen, accumulated activity ([1]; 24 h p.i.): 1.1 ± 0.2 % IA/g
- Stomach, accumulated activity ([1]; 24 h p.i.): 0.51 ± 0.14 % IA/g
- Tumor-to-blood ratio ([1]; 24 h p.i.): 13 ± 3
- Tumor-to-kidney ratio ([1]; 24 h p.i.): 0.67 ± 0.08
- Tumor-to-liver ratio ([1]; 24 h p.i.): 59 ± 13
- logD Values [2]: −3.7 ± 0.1 ^4

SMILES: O=C(O)CN1CCN(CC(=O)O)CCN(CC(=O)NCCC(=O)N[C@@H](CCCCNC(=O)CCCc2ccc(I)cc2)C(=O)O)CCN(CC(=O)O)CC1.[177Lu] [[^177Lu]Lu-DOTA-ALB-1]
- logD value [3]: −3.15 ± 0.04
